Among the data in a melting point compilation (Tetko et al.; mined from patent text by program, amines drawn as free bases though some values may be those of a salt) are melting point values, retold here.

Usually melting point stands for the temperature of the solid-liquid transition.

Molecule `CCOC(=O)CCc1cc(-c2ccc(Cl)cc2)n(-c2ccc(OC)cc2)n1` registered a melting point of 80 to 81 °C.
Consider `CC(C)(C)OC(=O)NCC(O)CN` (stereo not drawn), for which the melting point fell in the range of 77 to 79 °C.
Consider `CCOC(=O)C=Cc1ccc(OC(C)C)c(OC)c1`, for which the melting point lay within 103 to 104 °C.
For the molecule `Cc1[nH]c(=O)c(C#N)cc1-c1ccccc1OCC(=O)O`, the melting point fell in the range of 297 to 299 °C.
With `CC1(C)Oc2ccc(C(N)=S)cc2C(Oc2ccnc(O)c2)C1(C)O` (stereo not drawn), the melting point lay within 142 to 144 °C.
As for `N#CC1=C(C#N)SC(c2ccccc2)CS1` (stereo not drawn), the melting point was in the range of 122 to 124 °C.
As for `O=C(O)c1ccc(-c2nc3ccc([N+](=O)[O-])cc3s2)cc1`, the figure is 352 to 355 °C; as for `COc1ccc(SC)c2c1CC(=O)CC2`, 88 to 90 °C.
For the molecule `Cc1cccc(C)c1N1CCN(CCC2CN(C)C(=O)O2)CC1` (stereo not drawn), the melting point fell in the range of 107 to 108 °C.
`CC(C)C1(C)N=C2c3nc4occc4cc3C(=O)N2C1=O` (stereo not drawn) came in with a melting point of 193 to 205 °C.
Molecule `CC1=CC(=O)CC(C)(C)C1(O)C/C=C(C)/C=C\O` (stereo not drawn) yielded a melting point of 127 to 129 °C.
Turning to `O=C1Nc2ccccc2Oc2c1[nH]c1ccccc21`, the melting point was in the range of 233 to 234 °C.
In turn, `COc1ccccc1-c1ccc(C[C@H](NC(=O)C(C)c2c(Cl)cccc2Cl)C(=O)O)cc1` (stereo partly drawn) returned a melting point of 109 to 110 °C.
The molecule `O=[N+]([O-])c1c(Cl)cc(Cl)cc1-c1n[nH]cc1Cl` showed a melting point of 173 °C.
Regarding `CCCCCC(=O)N(Cc1ccccc1)c1nc(C)ns1`, the melting point was 72 °C.
`CCCC1=C(C(=O)OCC)C(c2ccccc2OCC)c2c[nH]nc2N1` (stereo not drawn) displayed a melting point of 203 °C.
`CC(C)C1=C(C#N)C(c2ccccc2Cl)c2c[nH]nc2N1` (stereo not drawn) had a melting point greater than 250 °C.
In turn, `O=c1ccn([C@@H]2C=CCC[C@@H]2O)c(=O)[nH]1` (racemic) displayed a melting point of 203 °C.
`O=C(Oc1ccccc1)c1ccccc1S` showed a melting point of 135 °C.
As for `O=C(O)CCCn1c(=O)[nH]c2ccccc21`, the figure is 180 °C; as for `CC(=O)C(=Cc1cc(O)c(O)c([N+](=O)[O-])c1)C(C)=O`, 175 to 178 °C; as for `CN1CCNC(=O)N1c1cc(Cl)cc(Cl)c1`, 150 to 151 °C.
Molecule `CN1Cc2cscc2N(CCc2ccccc2)c2ccccc21` came in with a melting point of 53 to 56 °C.
Consider `Cc1c(C)c2c(c(C)c1N)C(C)C(C)(N1CCN(C)CC1)O2` (stereo not drawn), for which the melting point was in the range of 76 to 77 °C.
In the case of `C#CCOC(=O)c1ccc(OCCC2CCN(c3ccc(Cl)nn3)CC2)cc1` it was 122 °C; in that of `O=C(CC(NC(=O)COc1ccccc1)c1ccccc1)Nc1n[nH]c(=S)s1` (stereo not drawn), 225 to 226 °C.
On to `CCOC(=O)c1cnc2sc(SCc3ccccc3)nn2c1=O`, for which the melting point was in the range of 129 to 132 °C.
In the case of `COc1cc(C(C)C)c(NC(=O)CN2CCN(CCSc3nc4ccccc4o3)CC2)c(C(C)C)c1` it was 115 to 117 °C; in that of `COc1cc(OC)c(C(=O)CC(=O)c2cc(OC)c(OC)cc2OC)cc1OC`, 173 to 176 °C.
The molecule `COc1ccc(-c2ccc(C=O)c(Cl)c2)cc1F` returned a melting point of 116 to 118 °C.
The molecule `CC(C)CCCC(C)C1CCC2C3CC=C4CC(OC(=O)OCC(N)C(=O)O)CCC4(C)C3CCC12C` (stereo not drawn) showed a melting point of 147 °C.
`Cc1cc(OCc2ccc(-c3ccc(C(F)(F)F)c(F)c3)nc2C)ccc1OC(C)(C)C(=O)O` showed a melting point of 175 to 176 °C.
Regarding `COc1ccc(N(CC(O)CO)S(=O)(=O)c2c(F)c(F)c(F)c(F)c2F)cc1` (stereo not drawn), the melting point fell in the range of 130 to 131 °C.
Take `CCOC(=O)NC(=S)OCc1ccccc1`: the melting point was determined as 96 °C.
In turn, `CCOc1ccc(-c2nc(-c3cc(C=CC(=O)O)c(O)c(C(=O)O)c3)cs2)cc1OCC` registered a melting point of 260 to 261 °C.
`Cc1c(Cc2ccc(Cl)cc2)sc2nc(N)[nH]c(=O)c12` had a melting point of 300 to 320 °C.
`CCCCCCN1CN(C)C=C1C(=O)NCCCCCCOc1ccc(OC)cc1` registered a melting point of 35 to 36 °C.
`Cc1csc(C2=C(c3ccc(S(C)(=O)=O)cc3)CCC2)c1` had a melting point of 138 to 139 °C.
In the case of `COC(=O)C=CC(=O)c1cc(F)ccc1N` it was 80 to 84 °C; in that of `CCCCNC(=O)C(=O)Nc1ccc(OC)cc1[N+](=O)[O-]`, 127 to 128 °C.
Turning to `CC(C)(C)OC(=O)NCC(C(=O)OCc1ccccc1)c1ccccc1` (stereo not drawn), the melting point lay in the range of 58 to 59 °C.
On to `COc1ccc2c(c1)CCC1CCNC(=O)C(CC(C)NC(C)C)=C21` (stereo not drawn), for which the melting point lay in the range of 118 to 126 °C.
In the case of `O=C(NCc1cccc2ccccc12)C1CCc2[nH]cnc2C1` (stereo not drawn) it was 142 to 144 °C; in that of `Cn1c(C(=O)N[C@H]2CCCC[C@H]2C(=O)N[C@H](C#N)CO)cc2ccccc21`, 78.4 to 79 °C.
In the case of `CCCCCC(COc1ccc(C(=O)O)cc1)c1ccc2c(c1)OCCC2(C)C` (stereo not drawn) it was 91.5 to 93.3 °C; in that of `CN1C(=O)C(NC(=O)CC23CC4CC(CC(C)(C4)C2)C3)N=C(c2ccccc2)c2ccccc21` (racemic), 195 to 196 °C.
With `Cc1nc(-n2ccc(OCc3ccccc3)cc2=O)[nH]c1C(=O)NCc1ccccc1`, the melting point lay in the range of 183 to 184 °C.
Molecule `C=CC(=O)Nc1cc2c(N(C(C)=O)c3ccc(F)c(Cl)c3)ncnc2cc1OCCCN1CCOCC1` had a melting point of 143 °C.
`COc1ccc(C(=O)Nc2ccccc2)cc1NCc1cccc([N+](=O)[O-])c1`: the melting point was 172 to 175 °C.
Molecule `CCCC(=O)Nc1nc2ccccc2n2c(CC)nnc12` had a melting point of 185 to 187 °C.
Take `CN1CCC(OC2c3ccccc3CCn3c(I)cnc32)CC1` (stereo not drawn): the melting point stood at 163 °C.
Regarding `COc1cccc(OC)c1-c1cc(C(=O)NC2(C(=O)O)C3CC4CC(C3)CC2C4)nn1-c1ccc(NC(=O)CCN2CCCCC2)cc1C` (stereo not drawn), the melting point came out at 240 °C.
On to `C=C(C)c1cc(NC(=O)N2CCN(c3cc(OC)cc(OC)c3)CC2)c(OC)nc1C`, for which the melting point lay within 83 to 85 °C.
In turn, `CCN(C=NS(=O)(=O)NC(=O)Nc1nc(OC)cc(OC)n1)CSC` came in with a melting point of 143 to 144 °C.
`CC#CCOc1cc(Oc2cccc(F)c2)ncn1` returned a melting point of 60.1 °C.
In turn, `CN1CCC(O)(c2cn(-c3ccnc(NC4CCCC4)n3)c(-c3cccc(C(F)(F)F)c3)n2)CC1` yielded a melting point of 189 to 193 °C.
Molecule `COC(=O)c1ccsc1COc1ccc(CCCCO)cc1` showed a melting point of 58 to 60 °C.
As to `CC1(C)C(=O)N(Cl)C(C)(C)C(=O)N1Cl`, the melting point fell in the range of 176 to 178 °C.
Take `COc1cc(C2CCN(C(=O)CN)CC2)ccc1Nc1ncc2ccc(-c3ccccc3N(C)S(C)(=O)=O)n2n1`: the melting point is 106 to 119 °C.
In turn, `O=C(CCCl)c1cc2c(s1)CCCC2` yielded a melting point of 51 to 53 °C.
As for `CN(NC(=O)c1ccccc1C(=O)O)c1nc(-c2ccccc2)cs1`, the melting point lay in the range of 122 to 124 °C.
With `CC(=O)Nc1nc2ccc(S(=O)(=O)n3c(CCCC(=O)O)cc4cc(C(F)(F)F)ccc43)cc2s1`, the melting point was greater than 250 °C.
In the case of `O=[N+]([O-])c1ccc(OCC(COc2ccc([N+](=O)[O-])cc2)(COc2ccc([N+](=O)[O-])cc2)COc2ccc([N+](=O)[O-])cc2)cc1`, the melting point was 274 to 282 °C.
In the case of `C#CCn1c(=O)nc(-c2ccc3c(c2)OCO3)c2cc3c(cc21)OCO3` it was 235 to 240 °C; in that of `CC(CCl)=NNC1=Nc2ccc(Cl)cc2C(c2ccccc2)=NC1`, 210 to 227 °C.
`O=C(NCc1ccc(Cl)cc1)c1cnc2ccc(CN3CCOCC3)cc2c1O`: the melting point was in the range of 219 to 220 °C.
Molecule `Nc1ccc(CCNC(=O)c2cc(O)c(O)c(O)c2)cc1` returned a melting point of 167 to 169 °C.
`O=C(O)CCCOc1cccc(CCCCCCOc2ccc3c(c2C/C=C/c2ccccc2)CCCC3=O)c1CCC(=O)O` had a melting point of 102 to 104 °C.
`O=c1[nH]c2cc(Cl)ccc2c(=O)n1S(=O)(=O)c1ccc(Cl)cc1F` had a melting point of 267 to 268 °C.
`CN1c2ccc(Cl)cc2C(c2ccccc2)=NCC1CN1CCCCC1` (stereo not drawn) came in with a melting point of 143 to 145 °C.
With `CN(C)c1cccc2c(S(=O)(=O)Nc3ncc(Cl)cc3Cl)cccc12`, the melting point fell in the range of 161 to 163 °C.
For the molecule `CC(=O)N1CCN(c2ccc(-c3cnc4[nH]cc(C(=O)N[C@@H](C(=O)N5CC(C#N)C5)C5CC5)c4n3)cc2)CC1`, the melting point is 185 to 188 °C.
As for `Cc1nnc(-c2ccc3occ(-c4ccc(S(C)=O)cc4Cl)c3c2)o1` (stereo not drawn), the figure is 175 to 176 °C.
`COc1cc(OC)nc(OC(C(=O)O)C2CCc3ccccc32)n1` (stereo not drawn) came in with a melting point of 113 to 117 °C.
Molecule `CCCCCCCCCCCCOc1ccc(CO)cc1` yielded a melting point of 66.5 to 67 °C.
`COC(=O)Cc1ccc(NC(=O)c2sc3ccc(OC)cc3c2OC(C)C)cc1` came in with a melting point of 111 to 113 °C.
The molecule `O=C(O)CCNC(=O)OCC(Cl)(Cl)Cl` displayed a melting point of 89.4 to 91 °C.
Consider `CCOC(=O)/C(=N\OC12CCC(CC1)CC2)c1csc(N)n1`, for which the melting point was in the range of 139 to 140 °C.
Turning to `[N-]=[N+]=NS(=O)(=O)c1cc(C(=O)O)c(O)c(S(=O)(=O)N=[N+]=[N-])c1`, the melting point was 184 to 186 °C.
In turn, `COc1c(-c2cc3c(s2)CCC(C)(C)C3N=[N+]=[N-])ccc2c(=O)c(C(=O)O)cn(C3CC3)c12` (stereo not drawn) gave a melting point of 89 to 90 °C.
For `COC(=O)c1nc(-c2ccc(Cl)c(OC)c2F)cc(N)c1OC`, the melting point is 114 to 118 °C.
Molecule `O=[N+]([O-])c1cc2c(Cl)ncnc2cc1F` had a melting point of 116 to 118 °C.
As for `C=C(C1=C(CCC(=O)OC)C(=O)CC1OCc1ccc(Cl)cc1)c1ccccc1` (stereo not drawn), the figure is 114 to 115 °C; as for `CC(C)(C)OC(=O)c1ncn2c1C1CCCN1C(=O)c1ncccc1-2` (stereo not drawn), 230 to 231 °C; as for `CN(C(=O)Cc1ccccc1)c1cccc(-c2ccc(CC3SC(=O)NC3=O)cc2)c1` (stereo not drawn), 138 °C.
The molecule `Cn1nnnc1SCC1NCCc2cc(OCc3ccccc3)c(OCc3ccccc3)cc21` (stereo not drawn) had a melting point of 106 to 108 °C.
In the case of `CCOC(=O)c1cc(NC(C)=O)ccc1OC(C)=O` it was 91.5 to 92.5 °C; in that of `CCOC(=O)c1ccc(OCCCC2CCN(c3ccc(-c4ccc(F)cc4)nn3)CC2)cc1`, 160 °C.
